From publication PMC11106675, “Synthesis of 1,4-azaphosphinine nucleosides and evaluation as inhibitors of human cytidine deaminase and APOBEC3A” (Beilstein Journal of Organic Chemistry, 2024)
Read-outs that look alike come from different tables or passages of the source. One block for each molecule: values may come before it.

Tests used:
[1] = target: T1, human cytidine deaminase (hCDA) (Homo sapiens, UniProt P32320); experiment: UV kinetic assay of hCDA-catalysed 2'-deoxycytidine deamination; type: biochemical; conditions: for Ki: substrate dC, competitive inhibition assumed
T1 construct: purchased Sigma-Aldrich SRP6372; host or cells: E. coli
Method: We monitored the hCDA-catalysed deamination of dC at 286 nm and analysed the kinetic profiles at various inhibitor concentrations using a global regression analysis of the kinetic data using Lambert’s W function. This method provides better estimates for the Michaelis–Menten constant (KM) and maximum velocity (Vmax) than nonlinear regression analysis of the initial rate (V0). […] Then, KM for the substrate and Ki for each inhibitor were calculated, assuming competitive nature of the inhibitors (Table 1).
We assumed that protonation of Va might result in some inhibition of hCDA. […] This means that the pH value of the assay should be close to pH 1.5 to see any meaningful effect of partially protonated compound Va, but hCDA would be denatured at this pH value. By lowering the pH value to 6.0, dZ (IIc) started to lose potency against hCDA (Table 1), which might be a result of protonation of the pyrimidine ring in dZ (IIc). […] At this pH value, less than 1 in 1,000 molecules of Va might be protonated, which could mean that protonated acid Va is a potent hCDA inhibitor.
Protein expression and purification
Recombinant human cytidine deaminase (hCDA) expressed in E.Coli was purchased form Sigma-Aldrich, product No SRP6372. […]
UV kinetic assay of hCDA-catalysed 2'-deoxycytidine
UV spectroscopy was used to monitor hCDA-catalysed deamination of 2'-deoxycytidine at 286 nm in 100 mM NaCl, 50 mM phosphate buffer at 25 °C at various pH as mentioned in the text. Cary 300 Bio UV-vis spectrometer from Varian was used. Enzymatic reactions were performed in a q uartz cuvette (0.1 cm). Deamination of 2'-deoxycytidine leads to a decrease in absorption at 286 nm (Figure […]
Figure S10. hCDA (27nM) catalysed deamination of 2'-deoxycitidine (⁓1.5 mM) in the absence (plus) and presence of 5 µM 2'-deoxyzebularine (IIc, asterisk) monitored by measuring absorbance at 286 nm over time in 100 mM NaCl, 1 mM TCEP, 50 mM phosphate buffer at 25 °C, at pH 7.4.
The uninhibited deamination (pluses, Figure S10) and the inhibited reaction start at about the same speed. As the reaction progresses, the inhibited reaction becomes slower, as its observed KM is larger than in the uninhibited case. In order to be able to visualize the fitted curves, only every 5th data point is plotted. The data was then fitted using Gnuplot to the integrated Michaelis Menten equation [10]: […]
(1 picture or pasted object on this page, not shown here) […]
where mm(t) calculates the current substrate concentration with respect to the time, t. The four parameters which are fitted are KM and vmax, the Michaelis-Menten constants, c is the initial substrate concentration and d is a baseline correction parameter. A summary of the measured inhibition […]
An increase in concentration of an inhibitor in enzymatic reaction leads to an increase in the observed KM value. The plot of observed KM values versus inhibitor concentration (Figures S11–S13) was then fitted with linear regression (y = ax + b) to derive the inhibition constant (Ki) using the following […]
Uncertainty of Ki was calculated using error-propagation method.
Figure S11. A plot of observed KM versus various concentration of dZ (IIc) in hCDA (27 nM) catalysed deamination of 2'-deoxycitidine in 100 mM NaCl, 1 mM TCEP, 50 mM phosphate buffer at 25 °C, at pH 7.4. […]

[2] = Stability in aqueous solution (NMR samples); type: physicochemical; conditions: for stability in sodium phosphate buffer: pH 7.0, NMR samples, several days
Excerpt: Catalytic hydrogenation is usually used for the removal of benzyl protecting groups. However, standard hydrogenation conditions using 10% Pd/C led to reduction of the C=C double bond in the nucleobase, providing nucleoside 24 (Scheme 3). To circumvent this problem, we used poisoned Pd catalyst (Lindlar’s catalyst, 5% Pd/CaCO3/3% Pb) and obtained the desired nucleoside 18. Individual anomers of nucleosides 18 and 24 were separated on a C18 column using a gradient of CH3CN in H2O. Removal of toluoyl groups was accomplished in aq NH3, providing pure α- and β-nucleoside of Va and Vc, respectively, carrying a negatively charged phosphinic acid group.

[3] = Estimation of pKa from change of λmax as a function of pH; type: physicochemical; conditions: estimated from change in λmax as a function of pH
Method: Figure S6. UV-vis spectra of compounds Va (A) and Vb (B) at 100 µM in 20 mM phosphate buffer, containing 10 %
Estimation of pKa of nucleoside Va
A change of λmax of nucleoside Va as a function of pH of the solution was plotted (Figure below) and
Figure S7. Change in λmax of nucleoside Va as a function of pH.
(1 picture or pasted object on this page, not shown here)

A3 enzymes = system: A3 enzymes; set-up: method as in PMID 30418757; conditions: as the free nucleoside; cited from earlier work

T1 sequence (P32320 whole entry): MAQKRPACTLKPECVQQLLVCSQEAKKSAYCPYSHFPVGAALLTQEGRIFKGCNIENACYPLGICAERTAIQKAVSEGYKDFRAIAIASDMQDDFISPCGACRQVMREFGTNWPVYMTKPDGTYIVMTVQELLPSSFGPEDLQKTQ

SMILES: NP1(=O)C=CN(C2CC(O)C(CO)O2)C(=O)C1 (stereo not drawn) [β-anomer of Vb]
Km/Ki ([1]; pH 7.4): 30 | Ki ([1]; pH 7.4, 25 °C, read-out: Ki): 8 ± 1.9 µM

SMILES: O=c1ncccn1[C@H]1C[C@H](O)[C@@H](CO)O1 [dZ (IIc), 2'-deoxyzebularine, reference compound]
Km/Ki ([1]; pH 6.0): 5.5 | Ki ([1]; pH 6.0, 25 °C, read-out: Ki): 49 ± 13 µM | Km/Ki ([1]; pH 7.4): 24 | inhibition of A3 enzymes (A3 enzymes): does not inhibit

SMILES: Nc1ccn([C@H]2C[C@H](O)[C@@H](CO)O2)c(=O)n1 [dC, 2'-deoxycytidine, reference compound]
Km ([1]; pH 7.4, fitted in the experiment with inhibitor dZ (IIc), read-out: Km of dC): 260 ± 40 µM

Further lines, results first:

Ki ([1]; pH 7.4, 25 °C): lack of inhibition | stability in sodium phosphate buffer [2]: no decomposition | stability in water ([2]; pH 7.4): excellent stability | pKa [3]: ≤ 1.5
SMILES: O=C1CP(=O)(O)C=CN1C1CC(O)C(CO)O1 (stereo not drawn) [Va]

Ki ([1]; pH 4.7, 25 °C, read-out: Ki): 560 ± 100 µM | Ki ([1]; pH 6.0, 25 °C): no inhibition | Ki ([1]; pH 7.4, 25 °C): no inhibition
SMILES: O=C1CP(=O)(O)C=CN1C1CC(O)C(CO)O1 (stereo not drawn) [β-anomer of Va]

stability in sodium phosphate buffer [2]: no decomposition
SMILES: O=C1CP(=O)(O)CCN1C1CC(O)C(CO)O1 (stereo not drawn) [Vc]
